{"source": "patent EP1338283A1", "about": "“Use of neoruscine to treat alopecia” (Pierre Fabre Dermo-Cosmetique, priority 2002, dated 2003)", "key": {"VEGF": {"tested_on": "VEGF", "assay": "VEGF assay (ELISA) in supernatants of dermal papilla cell cultures", "format": "cell-based", "settings": "néoruscine 50 µg/ml, 24 h treatment, dermal papilla cells, ELISA on supernatants", "protocol": "La suspension de cellules de la papille dermique (10^6 cellules/2 ml) dans le DMEM 10 % SVF est distribuée dans les plaques 6 puits (10^6 cellules/puits) et incubée pendant 18 heures à 37°C dans une atmosphère à 5 % CO2. Les cellules de la papille folliculaire sont alors rincées avec du PBS pour éliminer les cellules non adhérentes puis exposées pendant 24 heures aux produits à tester inclus dans du DMEM sans SVF (qui pourrait interférer dans le dosage). Pour chaque produit testé, 3 puits sont réalisés.\nL'extrait de Ruscus et la néoruscine purifiée sont testés en culture.\nAprès 24 heures de traitement, les surnageants sont récupérés, centrifugés puis conservés à -80°C avant leur utilisation ultérieure pour le dosage du VEGF.\nLa production du VEGF dans les surnageants est mesurée par Kit Elisa (R&D Biosystems). Les résultats sont exprimés en picogrammes de VEGF par 10^6 cellules et en pourcentages d'activité. Dans ce test la néoruscine à 50 µg/ml stimule la production du VEGF de 329 %."}, "gène du VEGF": {"tested_on": "gène du VEGF", "assay": "VEGF gene expression (RT-PCR) in dermal papilla cells", "format": "cell-based, humaine", "settings": "néoruscine 50 µg/ml, 3 h incubation", "protocol": "La suspension de cellules de la papille folliculaire (10^6 cellules par boîte de 25 cm^2) dans le milieu DMEM est distribuée dans les boîtes de culture puis incubés pendant 12 heures à 37°C dans une atmosphère à 5 % de CO2. Les CPD sont ensuite rincées avec du PBS pour éliminer les cellules non adhérentes.\nPour chaque lot, les cellules sont pré-incubées pendant 3 heures avec les produits à tester préparés dans du DMEM. Les cellules sont ensuite rincées deux fois au PBS.\nAprès rinçage au PBS, les boîtes de culture sont déposées sur de la glace. Les cellules sont traitées avec la solution d'extraction d'ARN, RNAβTM (1 ml/boîte).\nLes lysats cellulaires sont ensuite récupérés, centrifugés après avoir ajouté du chloroforme. Trois phases sont alors observables • inférieure contenant les débris cellulaires - interface contenant l'ADN • […] supérieure avec l'ARN\nLes surnageants sont prélevés, les ARN sont précipités avec de l'isopropanol. […]\nLa quantité d'ARN ainsi que la pureté sont déterminées par spectrophotométrie (Chomczynski P., Sacchi N. Anal. Biochem. 1987; 162: […]). […]\nUne caméra UV permet de saisir l'image du gel et la quantification du volume et de l'intensité des bandes correspondant à l'ADNc du VEGF se fait à l'aide d'un logiciel d'analyse d'image."}, "[1]": {"tested_on": "gène cytochrome P450 aromatase", "assay": "Cytochrome P450 aromatase gene expression (RT-PCR) in dermal papilla cells", "format": "cell-based, humaine", "settings": "néoruscine 5 µg/ml, 3 h exposure, human dermal papilla cells", "protocol": "Nous avons évalué, dans le cadre de cet exemple, l'activité de la néoruscine sur la transcription du gène VEGF par les cellules de la papille dermique humaine en culture.\nLes cellules de la papille dermique sont ensemencées à 10^6 cellules par boîte dans du DMEM à 10 % de SVF et 1 % de Pénicilline/Streptomycine pendant 24 heures à 37°C dans une atmosphère à 5 % CO2. Les cellules de la papille folliculaire sont alors rincées avec du PBS pour éliminer les cellules non-adhérentes puis exposées aux produits à tester dans du DMEM sans SVF (qui pourrait interférer dans le dosage) durant 3 heures.\nLes principes actifs ont été testés en culture à des concentrations non cytotoxiques. Une boîte de culture est réalisée pour chaque lot.\nAprès rinçage au PBS, les boîtes de culture sont déposées sur de la glace. Les cellules sont traitées avec la solution d'extraction d'ARN, RNA βTM (1 ml/boîte). […]\nLes surnageants sont prélevés, les ARN sont précipités avec de l'isopropanol. […] La quantité d'ARN ainsi que la pureté sont déterminées par spectrophotométrie.\nL'ARN total (1 µg) est rétro-transcrit en ADN complémentaire une heure à 48°C avec le kit Access RT-PCR system (Promega). […] Une caméra UV permet de saisir l'image du gel et la quantification du volume et de l'intensité des bandes correspondant à l'ADNc et du cytochrome P450 aromatase se fait à l'aide d'un logiciel d'analyse d'image. […]"}, "follicule pileux humain": {"tested_on": "follicule pileux humain", "assay": "Growth of human hair follicle ex vivo", "format": "cell-based", "settings": "5 days of treatment, activity versus controls", "protocol": "Les follicules pileux sont issus de scalp humain provenant du service de chirurgie plastique des hôpitaux ou des cliniques. La peau est rasée puis lavée dans 10 bains successifs de 10 min de PBS supplémentés d'antibiotiques (pénicilline 100 unités/ml et streptomycine 100 µg/ml). Les follicules en phase anagène reconnaissables car très vascularisés sont ensuite isolés de la peau sous la loupe binoculaire et débarrassés de la graisse. Ils sont ensuite incubés à 37°C dans des boîtes de culture dans du milieu de culture DMEM contenant le produit à tester. Le milieu de culture des follicules ne contient pas de sérum. Ce milieu est composé de 10µg/ml d'insuline, de 10 µg/ml de transferrine, de 10 µg/ml d'hydrocortisone, de 1% d'un mélange de pénicilline (100 uités /ml)-streptomycine (100µg/ml), de 2,5 µg/ml de fungizone et de la L-glutamine à 1mM.\nLes follicules sont mis en présence de différentes concentrations de néoruscine (50, 100 et 300 µg/ml) (10 follicules par traitement). Les témoins sont cultivés dans du milieu sans produit.\nLa croissance de la tige des follicules pileux est mesurée à l'aide de papier millimétré sous loupe binoculaire au jour 0 et tous les jours pendant 5 jours. Une caméra numérique permet de saisir les images de follicules pileux et de calculer avec précision leur taux de croissance. Le pourcentage de croissance = (mesure Tx - mesure T0)/ mesure T0). [formula] […]"}}}
{"substance": "néoruscine", "values": [{"measurement": "stimule la production du VEGF", "setting": "VEGF", "value": 329, "unit": "%"}, {"measurement": "stimulation de la transcription du gène du VEGF", "setting": "gène du VEGF", "value": "24,5%"}, {"measurement": "stimule la transcription du gène cytochrome P450 aromatase", "setting": "[1]", "value": 81, "unit": "%"}, {"measurement": "croissance des follicules pileux humains, activité du traitement", "setting": "follicule pileux humain; néoruscine 100 µg/ml", "value": "77,08%"}, {"measurement": "croissance des follicules pileux humains, activité du traitement", "setting": "follicule pileux humain; néoruscine 300 µg/ml", "value": "118,09%"}]}
